Experimental data as given in patent US20170296550A1, “ARYL SULTAM DERIVATIVES AS RORc MODULATORS” (Genentech, Inc., priority 2013, published 2017).

Molecular target: T1, RORc (Homo sapiens, UniProt P51449)
T1 construct: host or cells: E. coli
T1 sequence (P51449 269-508 limits assumed): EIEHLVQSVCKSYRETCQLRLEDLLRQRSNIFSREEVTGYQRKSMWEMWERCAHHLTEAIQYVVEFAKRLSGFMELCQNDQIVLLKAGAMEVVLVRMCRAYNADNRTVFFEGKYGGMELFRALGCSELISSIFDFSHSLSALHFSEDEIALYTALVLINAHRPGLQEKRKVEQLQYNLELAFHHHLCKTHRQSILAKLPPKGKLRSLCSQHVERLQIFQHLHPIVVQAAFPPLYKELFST
Experiment: In Vitro RORc Ligand Binding Assay (25-[3H]hydroxycholesterol radioligand, filter plate)
Conditions: RORc ligand binding domain 0.6 ug/mL; 6 nM 25-[3H]hydroxycholesterol; 3 h at 25° C.
Experimental: Example 68 In Vitro RORc Ligand Binding Assay
This assay was used to determine a compound's potency in inhibiting activity of RORc by determining, Kiapp, IC50, or percent inhibition values.
On day of the assay, 100 uL of 0.05% CHAPS (in deionized H2O) was added to all wells of the GFB Unifilter plate and allowed soak for 1 h. A wash buffer of 50 mM HEPES (pH 7.4), 150 mM NaCl, and 5 mM MgCl2 was prepared to wash the filter plate. To prepare an assay buffer, BSA was added to the wash buffer to reach 0.01% and DTT was added to reach 1 mM.
For IC50 mode, 10 mM compound stocks were serially diluted in DMSO with DMSO to give 20× required final concentration in DMSO (15 uL compound+30 uL DMSO). The 20× compound stocks were diluted in DMSO with Assay Buffer 4-fold to reach 5× the final test concentration in 25% DMSO (10 uL compound+30 uL Assay Buffer). Solutions were mixed by aspiration several times with a pipette set on 50 uL volume. For the assay, 10 uL of 5× compound stock solutions in 25% DMSO were added to the assay plate in duplicate.
For two point screening, 10 mM stock compound solutions were diluted in DMSO to obtain 200 uM (20× the high test concentration) and then diluted 10-fold further to reach 20 uM (20× the low test concentration). The 20× stocks were diluted 4-fold with Assay Buffer (10 uL compound+30 uL Assay Buffer) to reach 5× the test concentrations (50 uM and 5 uM) and 10 uL were added to two assay plates for the duplicate wells. With each concentration tested on 2 plates, each set of 80 compounds used 4 assay plates (1 uM and 10 uM, with n=2).
25-hydroxycholesterol (1 uM) was used to determine the level of NSB signal is prepared in DMSO as for compounds above, then diluted in Assay Buffer to give a final concentration of 5 uM. For 25-hydroxycholesterol in 25% DMSO/75% Assay Buffer; 10 uL per well was used for NSB samples. Wells for Total Binding and No Receptor sample determination contained 10 uL of 25% DMSO/75% Assay Buffer per well.
Radioligand (25-[^3H]hydroxycholesterol) Preparation
25-[^3H]hydroxycholesterol was dilute in Assay Buffer to obtain 15 nM and vortex to mix. Add 20 uL to all wells to reach 6 nM final in the assay.
Stock receptor solution was diluted in assay buffer to obtain 1.5 ug/mL in Assay Buffer. 20 uL was added to all wells. For No R samples, 20 uL Assay Buffer was substituted for receptor solution.
Assay plates were 96-well polypropylene V-bottom plates. 10 uL of 5× compound in 25% DMSO/75% Assay Buffer was added to Test wells. 10 uL of 25% DMSO/75% Assay Buffer was added to Total Binding or No Receptor wells. 10 uL of 5 uM 25-hydroxycholesterol in 25% DMSO/75% Assay Buffer was added to NSB wells. 20 uL of 15 nM 25-[^3H]hydroxycholesterol prepared in Assay Buffer was added to all wells. 20 uL of 1.5 ug/mL RORc receptor was added to wells (or […] Assay Buffer to No R wells). Following addition to the wells, the plates were incubated 3 h at 25° C.
Using a Packard Filtermate Harvester, the filter plate were washed 4 times following transfer of the incubated samples. Plates were dry-filtered completely (2 h at 50° C. or overnight at room temperature). 50 uL Microscint 0 was added to all wells and read on Topcount protocol Inverted.
Final concentrations were as follows: 50 mM HEPES buffer (pH 7.4); 150 mM NaCl; 1 mM DTT; 5 mM MgCl2; 0.01% BSA; 5% DMSO; 0.6 ug/mL RORc receptor; 6 nM 25-[^3H]hydroxycholesterol. For NSB wells, 1 uM 25-hydroxycholesterol was also present.

## Cc1n[nH]c(C)c1-c1ccc(CN2[C@@H](C)CCC(c3ccccc3)S2(=O)=O)c(F)c1 (single isomer, unassigned) [Example 1]
  IC50: 527 nM

## Cc1noc(C)c1C(=O)Nc1ccc(CN2[C@@H](C)CCC(c3ccccc3)S2(=O)=O)c(F)c1 (single isomer, unassigned) [Example 4]
  IC50: 27 nM

## C[C@H]1CCC(c2ccccc2)S(=O)(=O)N1Cc1ccc(C(=O)NCc2cn[nH]c2)cc1 (single isomer, unassigned) [Example 7]
  IC50: 502 nM

## Cc1cc(NC(=O)c2ccc(CN3[C@@H](C)CCC(c4ccccc4)S3(=O)=O)cc2)n(C)n1 (single isomer, unassigned) [Example 9]
  IC50: 969 nM

## C[C@H]1CCC(c2ccccc2)S(=O)(=O)N1Cc1ccc(C(=O)Nc2nc[nH]c2C#N)cc1 (single isomer, unassigned) [Example 10]
  IC50: 2900 nM

## C[C@H]1CCC(c2ccccc2)S(=O)(=O)N1Cc1ccc(C(=O)Nc2ncnn2C)cc1 (single isomer, unassigned) [Example 21]
  IC50: 3280 nM

## C[C@H]1CCC(c2ccccc2)S(=O)(=O)N1Cc1ccc(-c2ccc(S(N)(=O)=O)cc2)cc1F (single isomer, unassigned) [Example 22]
  IC50: 87 nM

## C[C@H]1CCC(c2ccccc2)S(=O)(=O)N1Cc1ccc(-c2cccc(CC(N)=O)c2)cc1F (single isomer, unassigned) [Example 25]
  IC50: 208 nM

## C[C@H]1CCC(c2ccccc2)S(=O)(=O)N1Cc1ccc(-c2ccc(C(=O)N(C)C)cc2)cc1F (single isomer, unassigned) [Example 30]
  IC50: 160 nM

## C[C@H]1CCC(c2ccccc2)S(=O)(=O)N1Cc1ccc(-c2csc(S(C)(=O)=O)n2)cc1F (single isomer, unassigned) [Example 37]
  IC50: 273 nM

## C[C@H]1CCC(c2ccccc2)S(=O)(=O)N1Cc1ccc(-c2ccc(S(C)(=O)=O)nn2)cc1F (single isomer, unassigned) [Example 41]
  IC50: 289 nM

## C[C@H]1CCC(c2ccccc2)S(=O)(=O)N1Cc1ccc(-c2n[nH]c(S(C)(=O)=O)n2)cc1F (single isomer, unassigned) [Example 42]
  IC50: 2170 nM

## C[C@H]1CCC(c2ccccc2)S(=O)(=O)N1Cc1ccc(-c2cnc(NS(C)(=O)=O)nc2)cc1F (single isomer, unassigned) [Example 43]
  IC50: 275 nM

## Cc1ccnc(COc2ccc(CN3[C@@H](C)CCC(c4ccccc4)S3(=O)=O)cc2)n1 (single isomer, unassigned) [Example 44]
  IC50: 963 nM

## CC(Oc1ccc(CN2[C@@H](C)CCC(c3ccccc3)S2(=O)=O)cc1)c1cnn(C)c1 (single isomer, unassigned) [Example 45]
  IC50: 693 nM

## CC(Oc1ccc(CN2[C@@H](C)CCC(c3ccccc3)S2(=O)=O)cc1)c1ncccn1 (single isomer, unassigned) [Example 50]
  IC50: 1350 nM

## C[C@H]1CCC(c2ccccc2)S(=O)(=O)N1Cc1ccc(OCc2ccncc2)cc1 (single isomer, unassigned) [Example 57]
  IC50: 114 nM

## C[C@H]1CCC(c2ccccc2)S(=O)(=O)N1Cc1ccc(OCc2cccnc2)cc1 (single isomer, unassigned) [Example 58]
  IC50: 106 nM

## Cc1ncsc1CCOc1ccc(CN2[C@@H](C)CCC(c3ccccc3)S2(=O)=O)cc1 (single isomer, unassigned) [Example 61]
  IC50: 151 nM

## C[C@H]1CCC(c2ccccc2)S(=O)(=O)N1Cc1ccc(-c2ccc3nncn3c2)cc1F (stereo partly drawn) [Example 5, 6-[3-Fluoro-4-((3S)-3-methyl-1,1-dioxo-6-phenyl-[1,2]thiazinan-2-ylmethyl)-phenyl]-[1,2,4]triazolo[4,3-a]pyridine]
  IC50: 454 nM

## C[C@H]1CCC(c2ccccc2)S(=O)(=O)N1Cc1ccc(C(=O)NCCn2ccnc2)cc1 (stereo partly drawn) [Example 6, N-(2-Imidazol-1-yl-ethyl)-4-((3S)-3-methyl-1,1-dioxo-6-phenyl-[1,2]thiazinan-2-ylmethyl)-benzamide]
  IC50: 3920 nM

## C[C@H]1CC[C@H](c2ccccc2)S(=O)(=O)N1Cc1ccc(C(=O)NCCCn2ccnc2)cc1 [Example 8, N-(3-Imidazol-1-yl-propyl)-4-((3S)-3-methyl-1,1-dioxo-6-phenyl-[1,2]thiazinan-2-ylmethyl)-benzamide]
  IC50: 4980 nM

## Cc1cc(NC(=O)c2ccc(CN3[C@@H](C)CCC(c4ccccc4)S3(=O)=O)cc2)n[nH]1 (stereo partly drawn) [Example 11, 4-((3S)-3-Methyl-1,1-dioxo-6-phenyl-[1,2]thiazinan-2-ylmethyl)-N-(5-methyl-1H-pyrazol-3-yl)-benzamidc]
  IC50: 1220 nM

## Cc1cc(NC(=O)c2ccc(CN3[C@@H](C)CCC(c4ccccc4)S3(=O)=O)cc2)no1 (stereo partly drawn) [Example 12, 4-((3S)-3-Methyl-1,1-dioxo-6-phenyl-[1,2]thiazinan-2-ylmethyl)-N-(5-methyl-isoxazol-3-yl)-benzamide]
  IC50: 404 nM

## C[C@H]1CCC(c2ccccc2)S(=O)(=O)N1Cc1ccc(C(=O)Nc2ccon2)cc1 (stereo partly drawn) [Example 13, N-Isoxazol-3-yl-4-((3S)-3-methyl-1,1-dioxo-6-phenyl-[1,2]thiazinan-2-ylmethyl)-benzamide]
  IC50: 166 nM

## C[C@H]1CCC(c2ccccc2)S(=O)(=O)N1Cc1ccc(C(=O)NCc2noc(C(N)=O)n2)cc1 (stereo partly drawn) [Example 14, 3-{[4-((3S)-3-Methyl-1,1-dioxo-6-phenyl-[1,2]thiazinan-2-ylmethyl)-benzoylamino]-methyl}-[1,2,4]oxadiazole-5-carboxylic acid amide]
  IC50: 1390 nM

## C[C@H]1CCC(c2ccccc2)S(=O)(=O)N1Cc1ccc(C(=O)NCc2noc(C(=O)N(C)C)n2)cc1 (stereo partly drawn) [Example 15, 3-{[4-((3S)-3-Methyl-1,1-dioxo-6-phenyl-[1,2]thiazinan-2-ylmethyl)-benzoylamino]-methyl}-[1,2,4]oxadiazole-5-carboxylic acid dimethylamide]
  IC50: 5190 nM

## C[C@H]1CCC(c2ccccc2)S(=O)(=O)N1Cc1ccc(C(=O)N(C)c2ncco2)cc1 (stereo partly drawn) [Example 16, N-Methyl-4-((3S)-3-methyl-1,1-dioxo-6-phenyl-[1,2]thiazinan-2-ylmethyl)-N-oxazol-2-yl-benzamide]
  IC50: 4840 nM

## C[C@H]1CCC(c2ccccc2)S(=O)(=O)N1Cc1ccc(C(=O)NCc2ccnn2C)cc1 (stereo partly drawn) [Example 17, 4-((3S)-3-Methyl-1,1-dioxo-6-phenyl-[1,2]thiazinan-2-ylmethyl)-N-(2-methyl-2H-pyrazol-3-ylmethyl)-benzamide]
  IC50: 1980 nM

## CC(NC(=O)c1ccc(CN2[C@@H](C)CCC(c3ccccc3)S2(=O)=O)cc1)c1ncc[nH]1 (stereo partly drawn) [Example 18, N-[1-(1H-Imidazol-2-yl)-ethyl]-4-((3S)-3-methyl-1,1-dioxo-6-phenyl-[1,2]thiazinan-2-ylmethyl)-benzamide]
  IC50: 1920 nM

## C[C@H]1CCC(c2ccccc2)S(=O)(=O)N1Cc1ccc(C(=O)NCc2ccno2)cc1 (stereo partly drawn) [Example 19, N-Isoxazol-5-ylmethyl-4-((3S)-3-methyl-1,1-dioxo-6-phenyl-[1,2]thiazinan-2-ylmethyl)-benzamide]
  IC50: 985 nM

## Cc1nn(C)cc1NC(=O)c1ccc(CN2[C@@H](C)CCC(c3ccccc3)S2(=O)=O)cc1 (stereo partly drawn) [Example 20, N-(1,3-Dimethyl-1H-pyrazol-4-yl)-4-((3S)-3-methyl-1,1-dioxo-6-phenyl-[1,2]thiazinan-2-ylmethyl)-benzamide]
  IC50: 2110 nM
